Measured values as given in patent publication US20260191968A1, “PROTAC DEGRADERS OF MLLT1 AND/OR MLLT3” (DARK BLUE THERAPEUTICS LTD, priority 2024, published 2026).

Key:
[1] = test system: MV4-11 cells; assay: MV4-11 cellular proliferative assay, Assay Format A (CellTiter-Glo, 120 hours); assay type: cell-based; conditions: Homo sapiens
Method in brief: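 Over 120 h, MV4-11 cells seeded at 50 cells/well in IMDM/10% FBS were exposed to compound (10 semi-log dilutions, 30 μM top). Viability was read by CellTiter-Glo luminescence. Signals were normalised to DMSO and reference-compound wells, and AC50 came from a Hill fit.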

[2] = target: T1, MLLT1 (Mus musculus, UniProt F6UGX7); assay: MLLT1 degradation assay in NIH/3T3 cells (JESS), dose response, 5 h; assay type: cell-based
T1 construct: host or cells: NIH/3T3
T1 sequence (F6UGX7 1-547): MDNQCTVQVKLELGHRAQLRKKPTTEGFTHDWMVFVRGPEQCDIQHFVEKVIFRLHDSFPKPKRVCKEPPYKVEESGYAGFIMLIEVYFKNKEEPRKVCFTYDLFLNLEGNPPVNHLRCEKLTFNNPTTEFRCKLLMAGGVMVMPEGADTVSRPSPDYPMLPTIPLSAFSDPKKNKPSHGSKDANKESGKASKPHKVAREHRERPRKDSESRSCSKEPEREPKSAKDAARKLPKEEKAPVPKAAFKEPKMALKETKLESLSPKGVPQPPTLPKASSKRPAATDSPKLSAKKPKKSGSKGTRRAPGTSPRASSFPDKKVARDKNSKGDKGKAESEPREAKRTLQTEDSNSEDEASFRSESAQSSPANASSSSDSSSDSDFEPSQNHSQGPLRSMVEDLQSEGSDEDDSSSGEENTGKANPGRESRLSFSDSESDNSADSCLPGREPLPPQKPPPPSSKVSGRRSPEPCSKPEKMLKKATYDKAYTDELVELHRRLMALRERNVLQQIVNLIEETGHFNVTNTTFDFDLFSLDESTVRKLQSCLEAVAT
Protocol: MLLT1 degradation efficacy of compounds was tested in an automated chemiluminescent detection system (JESS, Cat #004-650). NIH/3T3 (#CRL-1658, ATCC) were seeded at a density of 0.5 million cells/well in a cell culture treated 6-well cell culture plate in 2 mL of complete medium (DMEM+10% FBS+1X Penicillin-Streptomycin) and incubated at 37° C., 5% CO2. The next day, 10 mM DMSO stocks were prepared, and cells were treated with eight concentrations of test compound, starting from 100 nM, 5-fold dilution, at a final DMSO concentration of 0.1% and incubated for 5 h at 37° C., 5% CO2. Post incubation, cells were washed with HBSS and lysed in 70 μL of RIPA buffer supplemented with Protease inhibitors (sc-24948; Santa Cruz). Protein estimation was done using BCA protein assay kit (23228; Pierce). […] Post run, data was analysed using “Compass for SW” software for chemiluminescent detection. […]
MLLT3 degradation efficacy of compounds was tested in an automated chemiluminescent detection system (JESS, Cat #004-650). […] Post run, data was analysed using “Compass for SW” software for chemiluminescent detection. […]

SMILES: CN1CCC[C@@H]1c1cc2cnc(NC(=O)c3ccc(CCCC#Cc4cccc5c4CN(C4CCC(=O)NC4=O)C5=O)cc3)cc2[nH]1 (stereo partly drawn) [Example 55, 4-(5-(2-(2,6-dioxopiperidin-3-yl)-1-oxoisoindolin-4-yl)pent-4-yn-1-yl)-N-(2-((R)-1-methylpyrrolidin-2-yl)-1H-pyrrolo[3,2-c]pyridin-6-yl)benzamide]
- IC50 [1]: ≤ 100 nM
- Dmax ([2]; NIH3T3, read-out: MLLT1 Dmax in NIH/3T3 cells): 96%
- DC50 ([2]; NIH/3T3 cells, 5 h): 1.2 nM
